# Experimental data: ChEMBL document CHEMBL1201862, “PubChem BioAssay data set” (2004)
#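 Grown in 96-well plates, cells were treated for 48 hours with each compound at five concentrations. Insufficient inhibition: endpoint recorded as highest concentration tested. GI50 = concentration required for 50% inhibition of growth.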 The source made the active and inactive calls. No stated cut-off is given here; in the data, active = GI50 up to about 1.1 µM and inactive = higher.
# Assays:
# Experiment in all cases: NCI-60 cell line screen, 48 h
# [1] = system: LXFL 529
# [2] = system: SK-OV-3
# [3] = system: Malme-3M
# [4] = system: KM-20L2
# [5] = system: NCI-H522
# [6] = system: HL-60
# [7] = system: XF498
# [8] = system: SW-620
# [9] = system: SN12C
# [10] = system: KM12
# [11] = system: CCRF-CEM
# [12] = system: SF-268
# [13] = system: SF-539
# [14] = system: HCT-15
# [15] = system: HT-29
# [16] = system: SF-295
# [17] = system: ACHN
# [18] = system: 786-0
# [19] = system: SNB-75
# [20] = system: OVCAR-3
# [21] = system: K562
# [22] = system: TK-10
# [23] = system: SR
# [24] = system: M14
# [25] = system: HCT-116
# [26] = system: NCI-H226
# [27] = system: RXF 631
# [28] = system: SNB-19
# [29] = system: UACC-257
# [30] = system: CAKI-1
# [31] = system: MOLT-4
# [32] = system: SNB-78
# [33] = system: SK-MEL-2
# [34] = system: EKVX
# [35] = system: UO-31
# [36] = system: LOX IMVI
# [37] = system: U-251
# [38] = system: IGROV-1
# [39] = system: RPMI-8226
# [40] = system: DMS-273
# [41] = system: SK-MEL-28
# [42] = system: A549
# [43] = system: HOP-92
# [44] = system: M19-MEL
# [45] = system: NCI-H23
# [46] = system: DLD-1
# [47] = system: UACC-62
# [48] = system: SK-MEL-5
# [49] = system: HOP-18
# [50] = system: MDA-MB-231
# [51] = system: T47D
# [52] = system: HOP-62
# [53] = system: MDA-N
# [54] = system: MDA-MB-435
# [55] = system: DU-145
# [56] = system: HCC 2998
# [57] = system: NCI/ADR-RES
# [58] = system: BT-549
# [59] = system: Hs-578T
# [60] = system: DMS-114
# [61] = system: OVCAR-5
# [62] = system: NCI-H460
# [63] = system: PC-3
# [64] = system: OVCAR-4
# [65] = system: COLO 205
# [66] = system: A498
# [67] = system: MCF7
# [68] = system: OVCAR-8
smiles,measurement,setting,value
CC(C)=CC(=O)CC(=O)C(=O)Nc1ccc(C)c(C)c1,GI50,[1],> 100 µM (inactive)
same,GI50,[2],> 100 µM (inactive)
same,GI50,[3],> 100 µM (inactive)
same,GI50,[4],> 100 µM (inactive)
same,GI50,[5],> 100 µM (inactive)
same,GI50,[6],> 100 µM (inactive)
same,GI50,[7],> 100 µM (inactive)
same,GI50,[8],> 100 µM (inactive)
same,GI50,[9],> 100 µM (inactive)
same,GI50,[10],> 100 µM (inactive)
same,GI50,[11],> 100 µM (inactive)
same,GI50,[12],> 100 µM (inactive)
same,GI50,[13],> 100 µM (inactive)
same,GI50,[14],> 100 µM
same,GI50,[15],> 100 µM (inactive)
same,GI50,[16],> 100 µM (inactive)
same,GI50,[17],> 100 µM (inactive)
same,GI50,[18],> 100 µM (inactive)
same,GI50,[19],> 100 µM (inactive)
same,GI50,[20],> 100 µM (inactive)
same,GI50,[21],> 100 µM (inactive)
same,GI50,[22],> 100 µM (inactive)
same,GI50,[23],> 100 µM (inactive)
same,GI50,[24],> 100 µM (inactive)
same,GI50,[25],> 100 µM (inactive)
same,GI50,[26],> 100 µM (inactive)
same,GI50,[27],> 100 µM (inactive)
same,GI50,[28],> 100 µM (inactive)
same,GI50,[29],> 100 µM (inactive)
same,GI50,[30],> 100 µM (inactive)
same,GI50,[31],> 100 µM (inactive)
same,GI50,[32],> 100 µM (inactive)
same,GI50,[33],> 100 µM (inactive)
same,GI50,[34],> 100 µM (inactive)
same,GI50,[35],> 100 µM (inactive)
same,GI50,[36],> 100 µM (inactive)
same,GI50,[37],> 100 µM (inactive)
same,GI50,[38],> 100 µM (inactive)
same,GI50,[39],> 100 µM (inactive)
same,GI50,[40],> 100 µM (inactive)
same,GI50,[41],> 100 µM (inactive)
same,GI50,[42],> 100 µM (inactive)
same,GI50,[43],> 100 µM (inactive)
same,GI50,[44],> 100 µM (inactive)
same,GI50,[45],> 100 µM (inactive)
same,GI50,[46],> 100 µM (inactive)
same,GI50,[47],> 100 µM (inactive)
NC(=O)c1c[se]c(C2OC(CO)C(O)C2O)n1 (stereo not drawn),GI50,[48],10.3 µM (inactive)
same,GI50,[49],> 100 µM (inactive)
same,GI50,[1],17 µM (inactive)
same,GI50,[50],5.01 µM (inactive)
same,GI50,[2],> 29 µM (inactive)
same,GI50,[3],> 100 µM (inactive)
same,GI50,[5],6.25 µM (inactive)
same,GI50,[6],0.984 µM (active)
same,GI50,[7],8.91 µM (inactive)
same,GI50,[8],1.47 µM (inactive)
same,GI50,[9],> 84.7 µM (inactive)
same,GI50,[10],0.57 µM (active)
same,GI50,[51],> 100 µM (inactive)
same,GI50,[11],0.875 µM (active)
same,GI50,[12],6.84 µM (inactive)
same,GI50,[13],2.43 µM (inactive)
same,GI50,[14],0.537 µM
same,GI50,[15],3.55 µM (inactive)
same,GI50,[16],2.39 µM (inactive)
same,GI50,[17],5.94 µM (inactive)
same,GI50,[18],2.44 µM (inactive)
same,GI50,[19],> 59 µM (inactive)
same,GI50,[52],10.2 µM (inactive)
same,GI50,[20],0.74 µM (active)
same,GI50,[21],0.627 µM (active)
same,GI50,[53],36.4 µM (inactive)
same,GI50,[22],> 91.4 µM (inactive)
same,GI50,[23],8.61 µM (inactive)
same,GI50,[24],1.63 µM (inactive)
same,GI50,[54],7.29 µM (inactive)
same,GI50,[25],3.45 µM (inactive)
same,GI50,[26],> 58.6 µM (inactive)
same,GI50,[27],7.6 µM (inactive)
same,GI50,[55],31.8 µM (inactive)
same,GI50,[56],32.4 µM (inactive)
same,GI50,[57],9.16 µM (inactive)
same,GI50,[58],8.09 µM (inactive)
same,GI50,[59],> 100 µM (inactive)
same,GI50,[28],6.35 µM (inactive)
same,GI50,[29],> 100 µM (inactive)
same,GI50,[60],25.4 µM (inactive)
same,GI50,[30],6.93 µM (inactive)
same,GI50,[31],0.568 µM (active)
same,GI50,[33],> 100 µM (inactive)
same,GI50,[34],> 79.1 µM (inactive)
same,GI50,[35],6.5 µM (inactive)
same,GI50,[36],32.1 µM (inactive)
same,GI50,[37],0.953 µM (active)
same,GI50,[38],4.98 µM (inactive)
same,GI50,[39],6.43 µM (inactive)
same,GI50,[40],3.58 µM (inactive)
same,GI50,[61],31 µM (inactive)
same,GI50,[41],2.61 µM (inactive)
same,GI50,[62],17.5 µM (inactive)
same,GI50,[42],8.67 µM (inactive)
same,GI50,[43],> 100 µM (inactive)
same,GI50,[63],1.44 µM (inactive)
same,GI50,[44],5.28 µM (inactive)
same,GI50,[64],3.99 µM (inactive)
same,GI50,[65],1.22 µM (inactive)
same,GI50,[45],11 µM (inactive)
same,GI50,[66],44 µM (inactive)
same,GI50,[67],8.67 µM (inactive)
same,GI50,[68],4.31 µM (inactive)
same,GI50,[46],1.88 µM (inactive)
same,GI50,[47],12.3 µM (inactive)
